Source: patent US5457119A, “A89271 factors and processes for their production” (priority 1994, dated 1995)
In brackets after ≈: the same amount, converted by molar mass.

Tests used:
Type in all cases: cell-based
Candida albicans [1] = assay: In vitro antifungal activity, RPMI and 10% fetal calf serum broth
From the text: (§1) In those tables, a dash or "N.T." means the material was not tested.

[2] = tested on: Trichophyton mentagrophytes; assay: as above
From the text: as §1

Aspergillus fumigatus [3] = assay: In vitro antifungal activity, Sabouraud's and Dextrose broth
From the text: as §1

Candida albicans [4] = assay: as above
From the text: as §1

[5] = tested on: Trichophyton mentagrophytes; assay: as above
From the text: as §1

[6] = tested on: L1210 murine leukemia cell line; assay: Disk diffusion soft agar colony formation assay; conditions: 200 zone units = 6 MM
Experimental: (§2) The method of performing the disk diffusion soft agar colony […] assay is described in Chapter 3 of Cytotoxic Anticancer Drugs: Models and Concepts for Drug Discovery and Development (Frederick A. Valeriote, et al., eds., 1990). In addition to the procedure taught in this reference, one mL ethanol was added to each dry factor in a vial, and the desired concentration of solution was placed on a paper disk. The disk was dried and then placed on soft agar plates as described in the reference.
L1210 = murine leukemia cell line
(§3) ^2 Measurement in zone units; 200 zone units = 6 MM

[7] = tested on: P03 murine pancreatic solid tumor cell line; assay: Disk diffusion soft agar colony formation assay; conditions: 200 zone units = 6 MM
Experimental: as §2
P03 = murine pancreatic solid tumor cell line
as §3

[8] = tested on: C38 murine colon solid tumor cell line; assay: Disk diffusion soft agar colony formation assay; conditions: 200 zone units = 6 MM
Experimental: as §2
C38 = murine colon solid tumor cell line
as §3

[9] = tested on: CX-1 human colon solid tumor cell line; assay: Disk diffusion soft agar colony formation assay; conditions: factor line, no dose given, 200 zone units = 6 MM
Experimental: as §2
CX1 = human colon solid tumor cell line
as §3

[10] = tested on: H8 human colon solid tumor cell line; assay: Disk diffusion soft agar colony formation assay; conditions: 200 zone units = 6 MM
Experimental: as §2
H8 = human colon solid tumor cell line
as §3

[11] = tested on: LML "Low Malignancy Line" fibroblast; assay: Disk diffusion soft agar colony formation assay; conditions: 200 zone units = 6 MM
Experimental: as §2
LML = "Low Malignancy Line" fibroblast
as §3

[12] = tested on: Mam17 murine mammary solid tumor cell line; assay: Disk diffusion soft agar colony formation assay; conditions: 200 zone units = 6 MM
Experimental: as §2
Mam17 = murine mammary solid tumor cell line
as §3

Aspergillus fumigatus [13] = assay: In vitro antifungal activity, RPMI and 10% fetal calf serum broth; conditions: Table 5
From the text: as §1

Aspergillus fumigatus [14] = assay: In vitro antifungal activity, Antibiotic 3 broth (Difco); conditions: Table 7
From the text: as §1

Candida albicans [15] = assay: as above; conditions: Table 7
From the text: as §1

[16] = tested on: Trichophyton mentagrophytes; assay: as above
From the text: as §1

[17] = Table 1, RPMI and 10% Fetal Calf Serum Broth
[18] = unlabelled line below the (45 ug) line
[19] = Table 3, RPMI & 10% Fetal Calf Serum Broth
[20] = Table 5, RPMI and 10% Fetal Calf Serum Broth
[21] = unlabelled line below the (80 ug) line

Row | SMILES | Measurement in zone units ([6]; factor line, no dose given) | Measurement in zone units ([8]; factor line, no dose given) | MIC (Candida albicans [1]; [19]) | MIC [2, 19] | MIC (Aspergillus fumigatus [3]; Table 4) | MIC (Candida albicans [4]; Table 4) | MIC ([5]; Table 4) | Measurement in zone units ([6]; 20 ug per disk) | Measurement in zone units ([6]; 80 ug per disk) | Measurement in zone units ([8]; 20 ug per disk) | Measurement in zone units ([8]; 80 ug per disk) | Measurement in zone units ([12]; factor line, no dose given) | Measurement in zone units ([10]; 20 ug per disk) | Measurement in zone units ([10]; 80 ug per disk) | Measurement in zone units ([11]; 20 ug per disk) | Measurement in zone units ([11]; 80 ug per disk) | MIC (Aspergillus fumigatus [13]) | MIC (Candida albicans [1]; [20]) | MIC (Aspergillus fumigatus [3]; Table 6) | MIC (Candida albicans [4]; Table 6) | further results
1 | [C-]#[N+]C12C3OC3C(C)(C)C3=Nc4cccc5c4C3(O)C1(O)C(CC(Cl)C2(C)C=C)C5(C)C (stereo not drawn) [A89271 A] | 0-400 zone units | 650 zone units | – | – | – | – | – | – | – | – | – | – | – | – | – | – | – | – | – | – | MIC (Candida albicans [1]; [17]): 2.5 µg/mL (≈ 5.52 µM); MIC [2, 17]: > 20 µg/mL; MIC (Aspergillus fumigatus [3]; Table 2): 80 µg/mL (≈ 177 µM); MIC (Candida albicans [4]; Table 2): 2.5 µg/mL (≈ 5.52 µM); MIC ([5]; Table 2): 10 µg/mL (≈ 22.1 µM); Measurement in zone units ([6]; 9 ug per disk): 200-250 zone units; Measurement in zone units ([6]; 11 ug per disk): 250-320 zone units; Measurement in zone units ([7]; 9 ug per disk): 500 zone units; Measurement in zone units ([7]; factor line, no dose given): 650 zone units; Measurement in zone units ([8]; 9 ug per disk): 480 zone units; Measurement in zone units ([8]; 11 ug per disk): 610 zone units; Measurement in zone units ([8]; 45 ug per disk): 670 zone units; Measurement in zone units [8, 18]: 750 zone units; Measurement in zone units [9]: 600-650 zone units; Measurement in zone units ([10]; 9 ug per disk): 200-330 zone units; Measurement in zone units ([10]; 11 ug per disk): 250-420 zone units; Measurement in zone units [10, 18]: 300-470 zone units; Measurement in zone units ([11]; 11 ug per disk): 0-300 zone units; Measurement in zone units [11, 18]: 0-300 zone units
2 | [C-]#[N+]C1C2c3c(C(C)(C)C=C)[nH]c4cccc(c34)C(C)(C)C2CC(Cl)C1(C)C=C (stereo not drawn) [A89271 B] | 210 zone units | – | 1.25 µg/mL (≈ 3.07 µM) | 2.5 µg/mL (≈ 6.14 µM) | 20 µg/mL (≈ 49.1 µM) | 1.25 µg/mL (≈ 3.07 µM) | > 80 µg/mL | 100-200 zone units | 200-250 zone units | 260-400 zone units | 430 zone units | 220 zone units | 180 zone units | 200-300 zone units | 0-100 zone units | 80-250 zone units | – | – | – | – | Measurement in zone units [9]: 220 zone units; Measurement in zone units ([11]; factor line, no dose given): 0-250 zone units
3 | [C-]#[N+]C1C(C)(C=C)C(Cl)CC2C(C)(C)c3cccc4[nH]c(C(C)(C)C=C)c(c34)C21O (stereo not drawn) [A89271 C] | – | – | 1.25 µg/mL (≈ 2.96 µM) | 0.625 µg/mL (≈ 1.48 µM) | > 80 µg/mL | 2.5 µg/mL (≈ 5.91 µM) | > 80 µg/mL | – | – | – | – | – | – | – | – | – | – | – | – | – | –
4 | [C-]#[N+]C12C(O)C(O)C(C)(C)c3[nH]c4cccc5c4c3C1(O)C(CC(Cl)C2(C)C=C)C5(C)C (stereo not drawn) [A89271 D] | – | – | 1.25 µg/mL (≈ 2.75 µM) | 0.625 µg/mL (≈ 1.37 µM) | > 80 µg/mL | 1.25 µg/mL (≈ 2.75 µM) | > 80 µg/mL | – | – | – | – | – | – | – | – | – | – | – | – | – | –
5 | [C-]#[N+]C1C(C)(C=C)CCC2C(C)(C)c3cccc4[nH]c(C(C)(C)C=C)c(c34)C12O (stereo not drawn) [A89271 E] | 280 zone units | 300 zone units | – | – | – | – | – | 100-200 zone units | 250-300 zone units | 300-360 zone units | – | 350 zone units | 100-180 zone units | 220-240 zone units | 80 zone units | 100-180 zone units | > 80 µg/mL | 2.5 µg/mL (≈ 6.43 µM) | > 80 µg/mL | 5 µg/mL (≈ 12.9 µM) | MIC [2, 20]: 2.5 µg/mL (≈ 6.43 µM); MIC ([5]; Table 6): 2.5 µg/mL (≈ 6.43 µM); MIC (Aspergillus fumigatus [14]): > 80 µg/mL; MIC (Candida albicans [15]): 5.0 µg/mL (≈ 12.9 µM); MIC ([16]; Table 7): 5.0 µg/mL (≈ 12.9 µM); Measurement in zone units [6, 21]: 200-220 zone units; Measurement in zone units ([7]; 80 ug per disk): 440-500 zone units; Measurement in zone units [7, 21]: 460 zone units; Measurement in zone units [8, 21]: 480-500 zone units
6 | [C-]#[N+]C12C3OC3C(C)(C)c3[nH]c4cccc5c4c3C1(O)C(CC(Cl)C2(C)C=C)C5(C)C (stereo not drawn) [A89271 F] | 200-250 zone units | 500 zone units | 1.25 µg/mL (≈ 2.86 µM) | 1.25 µg/mL (≈ 2.86 µM) | > 80 µg/mL | 1.25 µg/mL (≈ 2.86 µM) | > 80 µg/mL | 300-350 zone units | 350-460 zone units | 590 zone units | 550-580 zone units | – | 200-350 zone units | 200-400 zone units | 0-80 zone units | 0-120 zone units | – | – | – | – | Measurement in zone units ([6]; 8 ug per disk): 250-280 zone units; Measurement in zone units ([6]; 16 ug per disk): 0-220 zone units; Measurement in zone units ([7]; 16 ug per disk): 440 zone units; Measurement in zone units ([7]; factor line, no dose given): 500 zone units; Measurement in zone units ([8]; 16 ug per disk): 460 zone units; Measurement in zone units ([12]; 8 ug per disk): 250 zone units; Measurement in zone units ([10]; 16 ug per disk): 200-330 zone units; Measurement in zone units ([10]; factor line, no dose given): 200-300 zone units; Measurement in zone units ([11]; 8 ug per disk): 0-400 zone units
7 | [C-]#[N+]C12C3OC3C(C)(C)c3[nH]c4cccc5c4c3C1(O)C(CCC2(C)C=C)C5(C)C (stereo not drawn) [A89271 I] | 260 zone units | – | – | – | – | – | – | 100-250 zone units | 200-220 zone units | 680 zone units | 500 zone units | 250 zone units | 100-180 zone units | – | 0-180 zone units | 100-200 zone units | > 80 µg/mL | 1.25 µg/mL (≈ 3.11 µM) | > 80 µg/mL | 2.5 µg/mL (≈ 6.21 µM) | MIC [2, 20]: 2.5 µg/mL (≈ 6.21 µM); MIC ([5]; Table 6): 2.5 µg/mL (≈ 6.21 µM); MIC (Aspergillus fumigatus [14]): > 80 µg/mL; MIC (Candida albicans [15]): 1.25 µg/mL (≈ 3.11 µM); MIC ([16]; Table 7): 5.0 µg/mL (≈ 12.4 µM); Measurement in zone units ([6]; 16 ug per disk): 110 zone units; Measurement in zone units ([7]; 16 ug per disk): 420 zone units; Measurement in zone units ([7]; 80 ug per disk): 490 zone units; Measurement in zone units ([8]; 16 ug per disk): 390 zone units; Measurement in zone units ([10]; 16 ug per disk): 120 zone units; Measurement in zone units ([11]; factor line, no dose given): 0-200 zone units
8 | C[C@@H]1[C@H](O)[C@@H](C)/C=C/C=C/C=C/C=C/C=C/C=C/C=C/[C@H](O[C@@H]2O[C@H](C)[C@@H](O)[C@H](N)[C@@H]2O)C[C@@H]2O[C@](O)(C[C@@H](O)C[C@@H](O)[C@H](O)CC[C@@H](O)C[C@@H](O)CC(=O)O[C@H]1C)C[C@H](O)[C@H]2C(=O)O [Amphotericin B, reference compound] | – | – | 0.156 µg/mL (≈ 0.169 µM) | – | 1.25 µg/mL (≈ 1.35 µM) | 0.312 µg/mL (≈ 0.338 µM) | – | – | – | – | – | – | – | – | – | – | 1.25 µg/mL (≈ 1.35 µM) | 0.625 µg/mL (≈ 0.676 µM) | 5.0 µg/mL (≈ 5.41 µM) | 0.312 µg/mL (≈ 0.338 µM) | MIC (Candida albicans [1]; [17]): 0.156 µg/mL (≈ 0.169 µM); MIC (Aspergillus fumigatus [3]; Table 2): 1.25 µg/mL (≈ 1.35 µM); MIC (Candida albicans [4]; Table 2): 0.625 µg/mL (≈ 0.676 µM); MIC (Aspergillus fumigatus [14]): 0.039 µg/mL (≈ 0.0422 µM); MIC (Candida albicans [15]): 0.02 µg/mL (≈ 0.0216 µM)
9 | Cc1cccc(N(C)C(=S)Oc2ccc3ccccc3c2)c1 [Tolnaftate, reference compound] | – | – | – | – | – | – | – | – | – | – | – | – | – | – | – | – | – | – | – | – | MIC ([2]; Table 1, RPMI and 10% Fetal Calf Serum Broth, read-out: MIC): 0.039 µg/mL (≈ 0.127 µM); MIC ([2]; Table 3, RPMI & 10% Fetal Calf Serum Broth, read-out: MIC): < 0.02 µg/mL; MIC ([2]; Table 5, RPMI and 10% Fetal Calf Serum Broth, read-out: MIC): 0.02 µg/mL (≈ 0.0651 µM); MIC ([5]; Table 2, read-out: MIC): 0.039 µg/mL (≈ 0.127 µM); MIC ([5]; Table 4, read-out: MIC): < 0.02 µg/mL; MIC ([5]; Table 6, read-out: MIC): 0.02 µg/mL (≈ 0.0651 µM); MIC ([16]; Table 7, read-out: MIC): 0.02 µg/mL (≈ 0.0651 µM)
